Laboratory results as given in patent US20250197408A1, “CRYSTALLINE FORMS AND SALTS OF A PI3K INHIBITOR AND METHODS OF MAKING AND METHODS OF USE THEREOF” (Totus Medicines Inc., priority 2022, published 2025).

Key:
[1] = Solubility in 7 aqueous pH buffers and bio-relevant fluids at 37° C. (HPLC of supernatant; residual solids by XRPD); assay type: physicochemical
Protocol: 20 mg of the free base Form A of Compound I was weighed into a 20 mL glass vial. Amounts of the salts equivalent to 20 mg anhydrous free base were weighed into a glass vial. 10 mL of solubility medium was added. The resulting suspensions/solutions were stirred at 37° C. at 400 rpm and sampled at 2 hours and at 24 hours, respectively. The samples were centrifuged at 37° C. at 14,000 rpm for 5 min. Supernatants were analyzed by HPLC and pH meter for solubility and pH value, respectively. Residual solids (wet cakes) from the 24 hours samples were also characterized by XRPD to determine physical form.
Residual solids after the solubility test were analyzed by XRPD.

[2] = Dynamic vapor sorption (DVS) analysis at 25° C.; assay type: physicochemical
Protocol: In one embodiment, the crystalline forms are characterized by Dynamic Vapor Sorption (DVS). The DVS profile is typically expressed by a diagram plotting the sample relative humidity (RH) versus the change in mass (%). The DVS profile provides information on hygroscopicity of the crystalline form at different RH conditions.
A DVS (dynamic vapor sorption) analysis at 25° C. was carried out on Form A** of Compound I benzenesulfonate salt as shown in FIG. 3D.

[3] = Variable humidity XRPD (VH-XRPD) experiments at 25° C.; assay type: physicochemical; settings: VH-XRPD and DVS isotherms
Protocol: Variable humidity XRPD (VH-XRPD) experiments.
XRPD analysis was carried out in each specific relative humidity at 25° C. Step: 40% RH (initial)-60% RH (4 h)-80% RH (4 h)-40% RH (4 h)-20% RH (4 h)-0% RH (4 h)-40% RH (4 h).

UM-UC-3 (bladder) = test: Cell proliferation assay (CellTiter-Glo, 3 days treatment), UM-UC-3; assay type: cell-based; settings: read-out: Absolute IC50
Source text: (§1) The cell lines tested included as follows: UM-UC-3 (bladder), KYSE-410 (HN/Esophagus), SW1463 (rectum), Calu-1 (Lung), NCI-H358 (Lung), SW837 (Rectum), SW756 (Cervix), NCI-H2122 (Lung), NCI-H1373 (Lung), NCI-H1792 (Lung), NCI-H23 (Lung), MIA PaCa-2 (Pancreas), and HC44.
(§2) Cells were recovered and maintained in appropriate culture media. The cells were harvested respectively during the logarithmic growth period. The cells were then resuspended and counted using a Vi cell counter (The cell viability be measured by trypan blue exclusion assay.). The cells were then diluted and 90 μL cell suspensions were used in 96-well plates according to plate map with final cell density. Two duplicate plates were set up. One is for day 0 reading (TO) and the other was cultured in incubator for reading at the end point. The incubated plates were incubated overnight in humidified incubator at 37° C. with 5% CO2.
(§3) At day 0, 10 μL culture medium to each well for TO reading. 10 μL of culture medium was added to each well for TO reading. Then, 50 μl CellTiter-Glo® Reagent was added to each well. […] Luminescence was then recorded using an EnVision Multi Label Reader. […]
(§4) For the endpoint CTG reading, 50 μL of CellTiter-Glo® Reagent were added to each well. […] Luminescence was then recorded using an EnVision Multi Label Reader. IC50's were determined for each cell line.

KYSE-410 (HN/Esophagus) = test: Cell proliferation assay (CellTiter-Glo, 3 days treatment), KYSE-410; assay type: cell-based; settings: read-out: Absolute IC50
Source text: as §1, §2, §3, §4

SW1463 (rectum) = test: Cell proliferation assay (CellTiter-Glo, 3 days treatment), SW1463; assay type: cell-based; settings: read-out: Absolute IC50
Source text: as §1, §2, §3, §4

Calu-1 (Lung) = test: Cell proliferation assay (CellTiter-Glo, 3 days treatment), Calu-1; assay type: cell-based; settings: read-out: Absolute IC50
Source text: as §1, §2, §3, §4

NCI-H358 (Lung) = test: Cell proliferation assay (CellTiter-Glo, 3 days treatment), NCI-H358; assay type: cell-based; settings: NCI-H358 (Lung), 3 days treatment; read-out: Absolute IC50
Source text: as §1, §2
At day 0, 10 μL culture medium to each well for TO reading. Then, 50 μl CellTiter-Glo® Reagent was added to each well. The contents were then mixed for 2 minutes on an orbital shaker to facilitate cell lysis. The plates were then allowed to incubate at room temperature for 10 minutes to stabilize luminescent signal. Luminescence was then recorded using an EnVision Multi Label Reader. The test compound Compound I, and a control cisplatin, where then diluted at various concentrations from a 10 mM stock solution. Compound I was diluted and 10 μL of each 10× compound I from working solutions for a concentration ranging from 10 μM to about 0.005 μM. Cisplatin was diluted to about […] to about 150 nM. The screening plates were then placed back into the incubator for the appropriate treatment time (3 days).
For the endpoint CTG reading, 50 μL of CellTiter-Glo® Reagent were added to each well. The contents were then mixed for 2 minutes on an orbital shaker to facilitate cell lysis. […] Luminescence was then recorded using an EnVision Multi Label Reader. IC50's were determined for each cell line.

SW837 (Rectum) = test: Cell proliferation assay (CellTiter-Glo, 3 days treatment), SW837; assay type: cell-based; settings: read-out: Absolute IC50
Source text: as §1, §2, §3, §4

SW756 (Cervix) = test: Cell proliferation assay (CellTiter-Glo, 3 days treatment), SW756; assay type: cell-based; settings: read-out: Absolute IC50
Source text: as §1, §2, §3, §4

NCI-H2122 (Lung) = test: Cell proliferation assay (CellTiter-Glo, 3 days treatment), NCI-H2122; assay type: cell-based; settings: read-out: Absolute IC50
Source text: as §1, §2, §3, §4

NCI-H1373 (Lung) = test: Cell proliferation assay (CellTiter-Glo, 3 days treatment), NCI-H1373; assay type: cell-based; settings: read-out: Absolute IC50
Source text: as §1, §2, §3, §4

NCI-H1792 (Lung) = test: Cell proliferation assay (CellTiter-Glo, 3 days treatment), NCI-H1792; assay type: cell-based; settings: read-out: Absolute IC50
Source text: as §1, §2, §3, §4

NCI-H23 (Lung) = test: Cell proliferation assay (CellTiter-Glo, 3 days treatment), NCI-H23; assay type: cell-based; settings: read-out: Absolute IC50
Source text: as §1, §2, §3, §4

MIA PaCa-2 (Pancreas) = test: Cell proliferation assay (CellTiter-Glo, 3 days treatment), MIA PaCa-2; assay type: cell-based; settings: read-out: Absolute IC50
Source text: as §1, §2, §3, §4

HC44 = test: Cell proliferation assay (CellTiter-Glo, 3 days treatment), HC44; assay type: cell-based; settings: HCC44 (Lung), read-out: Absolute IC50
Source text: as §1, §2, §3, §4

[4] = ES1, pH 1.2 HCl solution (0.1N), 37° C.
[5] = ES2, pH 4.5 acetate buffer (50 mM), 37° C.
[6] = ES3, pH 6.8 phosphate buffer (50 mM), 37° C.
[7] = ES4, pH 7.4 phosphate buffer (50 mM), 37° C.

C=CC(=O)NCC(=O)N1CCN(Cc2cc3c(N4CCOCC4)nc(-c4cnc(NC(=O)OC)cc4C(F)(F)F)nn3c2)CC1.O=P(O)(O)O [Form A* of Compound I phosphate salt, Methyl (5-(6-((4-(acryloylglycyl)piperazin-1-yl)methyl)-4-morpholinopyrrolo[2,1-f][1,2,4]triazin-2-yl)-4-(trifluoromethyl)pyridin-2-yl) carbamate phosphate salt]
solubility compared among forms ([1]; 37° C., 2 h and 24 h, 7 aqueous pH buffers and bio-relevant fluids): highest solubility
Solubility for 2 h [1, 4]: 1200 µg/mL
pH of supernatant, solubility for 2 h (pH) [1, 4]: (1.2)
Solubility for 24 h [1, 4]: 1000 µg/mL
pH of supernatant, solubility for 24 h (pH) [1, 4]: (1.0)
Solubility for 2 h [1, 5]: >2000 µg/mL
pH of supernatant, solubility for 2 h (pH) [1, 5]: (4.4)
Solubility for 24 h [1, 5]: >2000 µg/mL
pH of supernatant, solubility for 24 h (pH) [1, 5]: (4.4)
Solubility for 2 h [1, 6]: 8.8 µg/mL
pH of supernatant, solubility for 2 h (pH) [1, 6]: (6.6)
Solubility for 24 h [1, 6]: 6.4 µg/mL
pH of supernatant, solubility for 24 h (pH) [1, 6]: (6.5)
Solubility for 2 h [1, 7]: 6.1 µg/mL
pH of supernatant, solubility for 2 h (pH) [1, 7]: (7.2)
Solubility for 24 h [1, 7]: 4.1 µg/mL
pH of supernatant, solubility for 24 h (pH) [1, 7]: (7.1)
Solubility for 2 h ([1]; ES5, SGF, pH 2.0, 37° C.): >2000 µg/mL
pH of supernatant, solubility for 2 h (pH) ([1]; ES5, SGF, pH 2.0, 37° C.): (1.9)
Solubility for 24 h ([1]; ES5, SGF, pH 2.0, 37° C.): >2000 µg/mL
pH of supernatant, solubility for 24 h (pH) ([1]; ES5, SGF, pH 2.0, 37° C.): (1.8)
Solubility for 2 h ([1]; ES6, FaSSIF-v1, pH 6.5, 37° C.): 26.8 µg/mL
pH of supernatant, solubility for 2 h (pH) ([1]; ES6, FaSSIF-v1, pH 6.5, 37° C.): (6.2)
Solubility for 24 h ([1]; ES6, FaSSIF-v1, pH 6.5, 37° C.): 21.1 µg/mL
pH of supernatant, solubility for 24 h (pH) ([1]; ES6, FaSSIF-v1, pH 6.5, 37° C.): (6.1)
Solubility for 2 h ([1]; ES7, FeSSIF-v1, pH 5.0, 37° C.): 1600 µg/mL
pH of supernatant, solubility for 2 h (pH) ([1]; ES7, FeSSIF-v1, pH 5.0, 37° C.): (5.0)
Solubility for 24 h ([1]; ES7, FeSSIF-v1, pH 5.0, 37° C.): 1700 µg/mL
pH of supernatant, solubility for 24 h (pH) ([1]; ES7, FeSSIF-v1, pH 5.0, 37° C.): (4.9)
maintenance of supersaturation ([1]; pH 4.5 buffer, 37° C.): can be maintained for a longer time than the crystalline Form B* of Compound I maleate salt
hygroscopicity / water sorption behavior (DVS) [2]: slightly hygroscopic in <90% RH. Then it becomes hygroscopic
relative humidity in which it converts to hydrate form (DVS) [2]: > 30 % RH
relative humidity in which the form dehydrates (DVS) [2]: < 30 % RH
solid form of the sample after the DVS test [2]: still the Form A* of Compound I phosphate salt
water uptake (DVS) ([2]; from 40% to 95% RH): 3.3%
relative humidity at which the form dehydrates and converts to anhydrate Form B of Compound I phosphate salt [3]: < 20 % RH

N.N.[Cl][Pt][Cl] [cisplatin, reference compound]
IC50 (UM-UC-3 (bladder)): 1.86 µM
IC50 (KYSE-410 (HN/Esophagus)): 15.8 µM
IC50 (SW1463 (rectum)): 12.2 µM
IC50 (Calu-1 (Lung)): 10.2 µM
IC50 (NCI-H358 (Lung)): 12.5 µM
IC50 (SW837 (Rectum)): 42.5 µM
IC50 (SW756 (Cervix)): 10.3 µM
IC50 (NCI-H2122 (Lung)): 17.8 µM
IC50 (NCI-H1373 (Lung)): 8.72 µM
IC50 (NCI-H1792 (Lung)): 4.88 µM
IC50 (NCI-H23 (Lung)): 3.58 µM
IC50 (MIA PaCa-2 (Pancreas)): 7.03 µM
IC50 (HC44): 7.96 µM
